According to patent US10450322B2, “Low molecular weight derivatives of carboxamide halogenated porphyrins, namely chlorins and bacteriochlorins, and their applications thereof” (LUZITIN, S.A., priority 2015, dated 2019):

Columns and labels:
[1] = Photobleaching (photodecomposition quantum yield); type: physicochemical; conditions: methanol:PBS (3:2)
[2] = tested on: CT26 (mouse colon adenocarcinoma) cell line; assay: In vitro phototoxicity / dark toxicity towards CT26 cells; type: cell-based
Protocol: Phototoxicity towards cancer cell lines was evaluated in vitro using A549 (human lung adenocarcinoma) and CT26 (mouse colon adenocarcinoma) cell lines. The cells were cultured in Dulbecco's modified Eagles's medium (DMEM) supplemented with 10% heat-inactivated fetal bovine serum and 1% penicillin. Cells were plated at a density of 20,000/well and 15,000/well respectively, in flat-bottom 96-well plates. On the following day, diluted solutions of the test compound were prepared (1 mM stock) and added to the cells for 30-min incubation. […] The wells were washed two times with PBS and irradiated after 30-min of incubation using the LED light described above. Light dose was 1 J/cm^2. The medium was replaced with fresh one after irradiation and the plates were incubated for 24 h, at which time the cellular viability was assessed by resazurin method using a microplate spectrophotometer (Synergy HT Biotek).
This example describes the evaluation of in vitro phototoxicity of a carboxamide bacteriochlorin with formula IX after light irradiation, and their potential for PDT of cancer. The formulation employed was the same as that of Example 4. […] The phototoxicity was measured according to the description in the Materials and Methods section. The phototoxicity of the test compound was assessed in terms of the percentage of survival of the cells for various concentrations of the test compound incubated for 30 min, followed by washings with PBS, addition of the culture medium and illumination with a light dose of 1 J/cm^2.

SMILES: CNC(=O)c1c2nc(c(-c3c(F)cccc3F)c3ccc(cc4nc(c(-c5c(F)cccc5F)c5ccc1[nH]5)CC4)[nH]3)CC2 [formula IX, 5-methylcarboxamide-10,20-bis-(2,6-difluorophenyl)bacteriochlorin]
- Φpd photodecomposition quantum yield [1]: 1.5 10^−4
- IC50 ([2]; 30 min incubation, irradiated with 1 J/cm^2): 5.8 nM
- photosensitizer concentration at which nearly all cells are killed ([2]; CT26, 30 min incubation, 1 J/cm^2 (FIG. 6)): 50 nM
- concentration with no signs of toxicity in the dark ([2]; CT26, incubation in the dark for 30 min): up to 40 μM
